Columns and labels:
TrkB = target: T1, TrkB (Homo sapiens, UniProt Q16620); test: Cell-associated fluorescence saturation binding, TrkB-HEK293 cells; conditions: 2.5 h, with and without 0.6 nM BDNF
T1 construct: expressed in transfected cells; host or cells: HEK293 (TrkB-HEK293)
Protocol: (§1) FIG. 2: 5c(i) binds to TrkB and TrkC receptors. Transfected cell lines that are Trk positive cells (TrkB-HEK293 and TrkC-NIH/3T3) and non-transfected cell lines that are Trk negative cells (HEK293 and NIH/3T3) were seeded approximately 2,000 cells/well in a 96-well plate and incubated for 24 hours. The cells were treated with a serial dilution of compound (0, 10, 25, 50, 100, 200, 500, and 1000 nM) in serum-free media (SFM) with and without A) 0.6 nM of BDNF (TrkB-HEK293 and HEK293) and B) 0.2 nM of NT-3 (TrkC-NIH/3T3 and NIH/3T3) for 2.5 h. After that, the cells were washed with PBS once to remove unbound compounds and dissolved in 1% (w/v) aqueous sodium dodecyl sulfate. Cell-associated fluorescence was then determined by measuring the emission of the resulting solution upon λex (540/25 nm) and λem (620/40 nm) using Agilent BioTek Synergy H4 Hybrid Microplate Reader. Kd was calculated by GraphPad Prism 9 using Binding saturation (One site—Specific binding).
(§2) Transfected cell lines that are Trk positive cells (TrkA-HeLa, TrkB-HEK293, and TrkC-NIH/3T3) and non-transfected cell lines that are Trk negative cells (HeLa, HEK293, and NIH/3T3) were seeded at 2,000 cells/well in a 96-well plate (0.32 cm^2 growth area) and incubated inside a 5% CO2 incubator at 37° C. for 24 hours. […] The dissociation constant (Kd) was calculated using binding saturation (One site—Specific binding).

[1] = test system: primary adult cortical neurons; test: Primary adult cortical neuron culture: survival and neurite outgrowth; type: cell-based, mouse; conditions: adult neurons from 6-month-old mice, 2 days with 5c(i)
Protocol: FIGS. 3A-3C: 5c(i) augments neuritogenesis and neuron survival. Primary adult cortical neurons from 6-month-old female mice were treated with 5c(i) for 2 days. 5c(i) was added at the time of cell plating. Cells were fixed 2 days after cell plating. 3A) Graph represents mean±SEM of percent change in neurite outgrowth per cell and number of surviving neurons. Representative images of 3B) Vehicle and 3C) 5000 nM 5c(i) treated groups. Linear regression was conducted to determine statistical significance. […] Scale bar=50 μm.
For all cell culture experiments, primary neural cells were extracted from the cortices of […] mice. The extraction, purification, and separation of neurons and glia was conducted as previously before^58 covered under patent application WO2022266431, incorporated by reference herein in its entirety. Briefly, after euthanization of mice, the brains were microdissected and placed in papain filled GENTLEMACS™ (tissue dissector) C Tubes followed by cell dissociation using the GENTLEMACS™ (tissue dissector) Octo Dissociator with Heaters with heating cuffs using the GENTLEMACS™ (tissue dissector) Program 37C_ABDK_01 protocol. After protocol completion, the contents were strained through a 70 μm cell strainer, debris and red blood cells were removed, and the remaining solution was labeled with glia specific antibodies. […]

[2] = test system: cells lacking TrkB/TrkC receptors; test: Binding and activity in Trk negative cells (HEK293 and NIH/3T3); conditions: non-transfected HEK293 and NIH/3T3
Protocol: as §1, §2

T1 sequence (Q16620 32-822, species assumed): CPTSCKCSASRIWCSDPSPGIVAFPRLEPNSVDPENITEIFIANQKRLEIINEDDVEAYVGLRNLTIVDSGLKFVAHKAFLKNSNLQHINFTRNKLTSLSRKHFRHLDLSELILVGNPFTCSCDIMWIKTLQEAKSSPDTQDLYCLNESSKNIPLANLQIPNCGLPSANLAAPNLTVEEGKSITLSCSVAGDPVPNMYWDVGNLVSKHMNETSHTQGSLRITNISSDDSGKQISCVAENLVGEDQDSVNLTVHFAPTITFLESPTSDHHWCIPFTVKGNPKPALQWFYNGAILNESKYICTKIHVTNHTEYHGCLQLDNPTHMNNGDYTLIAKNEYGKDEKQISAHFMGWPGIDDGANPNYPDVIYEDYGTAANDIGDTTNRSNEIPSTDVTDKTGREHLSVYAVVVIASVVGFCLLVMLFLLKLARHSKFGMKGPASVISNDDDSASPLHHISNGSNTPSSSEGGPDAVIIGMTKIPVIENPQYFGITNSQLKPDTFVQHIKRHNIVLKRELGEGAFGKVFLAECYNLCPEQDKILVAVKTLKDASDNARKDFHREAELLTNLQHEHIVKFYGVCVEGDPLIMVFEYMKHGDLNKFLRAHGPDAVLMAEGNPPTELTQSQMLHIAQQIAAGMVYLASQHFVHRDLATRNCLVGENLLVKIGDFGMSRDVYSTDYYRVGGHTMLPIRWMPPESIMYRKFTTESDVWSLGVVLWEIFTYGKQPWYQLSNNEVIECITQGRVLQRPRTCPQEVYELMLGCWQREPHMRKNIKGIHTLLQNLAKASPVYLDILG

C-DIRG-C BODIPY® (fluorescent dye) [5c(i)]
affinity for TrkB (Kd) (TrkB): low nanomolar affinity
increase in neurite outgrowth [1]: 42%
increase in neuron survival [1]: 94%
binding and biological activity in cells lacking TrkB/TrkC receptors [2]: lack of binding and biological activity

From US20260042801A1, “COMPOSITIONS AND METHODS FOR DYE-BOUND CYCLIZED PEPTIDES FOR MEDICAL USE” (The Texas A&M University System, priority 2022, published 2026)
